Measured values from patent publication US9670204B2, “Compounds and pharmaceutical compositions thereof for the treatment of inflammatory disorders” (Galapagos NV, priority 2013, dated 2017).

Target: hENPP2 (UniProtKB/SwissProt Q13822) (Homo sapiens (Human), UniProt Q13822)
Assay: hENPP2 biochemical assay, LPC as substrate
Settings: LPC (palmitoyl 16:0) as substrate
Procedure: The principle of the assay consists in quantifying the released choline with an enzymatic method using choline oxidase and peroxidase. Choline oxydation by choline oxydase releases betaine and peroxide. The latter is quantified in presence of HRP that converts the peroxide detection agent TOOS and 4-aminoantipyrine into quinoneimine dye. The appearance of quinoneimine dye is measured spectrophotometrically at 555 nm and is proportional to the amount of choline released by ENPP2. Inhibition of ENPP2 will result in a decrease of the signal.
Compound IC50 values are determined in a hENPP2 (UniProtKB/SwissProt Sequence ref Q13822) biochemical assay using LPC as substrate.
The enzyme is diluted in 50 mM Tris-HCl pH 8.5, 500 mM NaCl, 5 mM KCl, 10 mM CaCl2, 0.1% fatty acid free BSA in a total volume of 10 μL. the reaction is started by the addition of 10 μL of 150 μM LPC (palmitoyl 16:0) diluted in the same buffer as described above and the mixture is incubated at 37° C. for 30 min. The reaction is terminated and choline quantified by the addition of a 25 μL of a mixture containing 0.6 U/mL of choline oxidase, 0.6 U/mL of peroxydase, 1.8 mM TOOS, 1.2 mM amino-antipyrine, 20 mM EGTA (stop-developer solution) diluted in the buffer described above. […] is read on the Envision after an incubation of 30 min at room temperature (Excitation 555 nm, excitation light=70%).

Structure (SMILES) | IC50 [nM]
CCc1nc2ccc(N3CCN(CC(N)=O)CC3)cn2c1N(C)c1nc(-c2ccc(F)cc2)cs1 [Compound 33, 2-(4-(2-ethyl-3-((4-(4-fluorophenyl)thiazol-2-yl)(methyl)amino)imidazo[1,2-a]pyridin-6-yl)piperazin-1-yl)acetamide] | 500 to 1000
CCc1nc2ccc(C3CCN(C(=O)CN(C)C)CC3)cn2c1N(C)c1nc(-c2ccc(F)cc2)c(CO)s1 [Compound 153, 2-(dimethylamino)-1-(4-(2-ethyl-3-((4-(4-fluorophenyl)-5-(hydroxymethyl)thiazol-2-yl)(methyl)amino)imidazo[1,2-a]pyridin-6-yl)piperidin-1-yl) ethanone] | 500 to 1000
CCc1nc2ccc(N3CCN(CC(=O)N4CCCC4)CC3)cn2c1N(C)c1nc(-c2ccc(F)cc2)cs1 [Compound 31, 2-(4-(2-ethyl-3-((4-(4-fluorophenyl)thiazol-2-yl)(methyl)amino)imidazo[1,2-a]pyridin-6-yl)piperazin-1-yl)-1-(pyrrolidin-1-yl)ethanone] | 0.01 to 100
CCc1nc2ccc(C3CCN(S(C)(=O)=O)CC3)cn2c1N(C)c1nc(-c2ccc(F)cc2C#N)c(C)s1 [Compound 97, 2-(2-((2-ethyl-6-(1-(methylsulfonyl)piperidin-4-yl)imidazo [1,2-a]pyridin-3-yl)(methyl)amino)-5-methylthiazol-4-yl)-5-fluorobenzonitrile] | 100 to 500
CCOC(=O)C(C)N1CCN(c2ccc3nc(CC)c(N(C)c4nc(-c5ccc(F)cc5)cs4)n3c2)CC1 (stereo not drawn) [Compound 37, ethyl 2-(4-(2-ethyl-3-((4-(4-fluorophenyl)thiazol-2-yl)(methyl)amino)imidazo[1,2-a]pyridin-6-yl)piperazin-1-yl)propionoate] | > 1000
CCc1nc2ccc(N3CCN(CC(=O)N4CC(F)(F)C4)CC3)cn2c1N(C)c1nc(-c2ccc(F)cc2)cs1 [Compound 29, 1-(3,3-difluoroazetidin-1-yl)-2-(4-(2-ethyl-3-((4-(4-fluorophenyl)thiazol-2-yl)(methyl)amino)-imidazo[1,2-a]pyridin-6-yl)piperazin-1-yl)ethanone] | 100 to 500
CCc1nc2ccc(C3CCN(C(=O)CNC)CC3)cn2c1N(C)c1nc(-c2ccc(F)cc2)cs1 [Compound 127, 1-(4-(2-ethyl-3-((4-(4-fluorophenyl)thiazol-2-yl)(methyl)amino)imidazo[1,2-a]pyridin-6-yl)piperidin-1-yl)-2-(methylamino)ethanone] | 500 to 1000
CCc1nc2ccc(C3CCN(CC(=O)N4CC(CO)C4)CC3)cn2c1N(C)c1nc(-c2ccc(F)cc2)c(CO)s1 [Compound 152] | 500 to 1000
CCc1nc2ccc(C3CCN(C(=O)CCN(C)C)CC3)cn2c1N(C)c1nc(-c2ccc(F)cc2)cs1 [Compound 130, 3-(dimethylamino)-1-(4-(2-ethyl-3-((4-(4-fluorophenyl)thiazol-2-yl)(methyl)amino)imidazo[1,2-a]pyridin-6-yl)piperidin-1-yl)propan-1-one] | 100 to 500
CCOC(=O)C(=O)N1CCN(c2ccc3nc(CC)c(N(C)c4nc(-c5ccc(F)cc5)cs4)n3c2)CC1 [Compound 228, ethyl 2-(4-(2-ethyl-3-((4-(4-fluorophenyl)thiazol-2-yl)(methyl)amino)imidazo[1,2-a]pyridin-6-yl)piperazin-1-yl)-2-oxoacetate] | > 1000
CCc1nc2ccc(C3CCN(C(=O)CN(C)C)CC3)cn2c1N(C)c1nc(-c2ccc(F)cc2)cs1 [Compound 129, 2-(dimethylamino)-1-(4-(2-ethyl-3-((4-(4-fluorophenyl)thiazol-2-yl)(methyl)amino)imidazo[1,2-a]pyridin-6-yl)piperidin-1-yl)ethanone] | 100 to 500
CCc1nc2ccc(N3CCN(CC(=O)N4CC(F)C4)CC3)cn2c1N(C)c1nc(-c2ccc(F)cc2C#N)cs1 [Compound 164, 2-(2-((2-ethyl-6-(4-(2-(3-fluoroazetidin-1-yl)-2-oxoethyl)piperazin-1-yl)imidazo[1,2-a]pyridin-3-yl)(methyl)amino)thiazol-4-yl)-5-fluorobenzonitrile] | 0.01 to 100
CCc1nc2ccc(N3CCN(C(=O)C4CCCN4C(=O)OC(C)(C)C)CC3)cn2c1N(C)c1nc(-c2ccc(F)cc2)cs1 (stereo not drawn) [Compound 44, tert-butyl 2-(4-(2-ethyl-3-((4-(4-fluorophenyl)thiazol-2-yl)(methyl)amino)imidazo[1,2-a]pyridin-6-yl)piperazine-1-carbonyl)pyrrolidine-1-carboxylate] | > 1000
CCc1nc2ccc(N3CCN(C(=O)C4CC(=O)N(Cc5ccccc5)C4)CC3)cn2c1N(C)c1nc(-c2ccc(F)cc2)cs1 (stereo not drawn) [Compound 205, 1-Benzyl-4-[4-(2-ethyl-3-{[4-(4-fluoro-phenyl)-thiazol-2-yl]-methyl-amino}-imidazo[1,2-a]pyridin-6-yl)-piperazine-1-carbonyl]-pyrrolidin-2-one] | 500 to 1000
CCc1nc2ccc(C3CCN(C(=O)CCNC)CC3)cn2c1N(C)c1nc(-c2ccc(F)cc2)cs1 [Compound 132, 1-(4-(2-ethyl-3-((4-(4-fluorophenyl)thiazol-2-yl)(methyl)amino)imidazo[1,2-a]pyridin-6-yl)piperidin-1-yl)-3-(methylamino)propan-1-one] | > 1000

Second part, the compound after the results:

IC50 [nM] | Structure (SMILES)
> 1000 | CCc1nc2ccc(C3CCN(C[C@H]4CNC(=O)O4)CC3)cn2c1N(C)c1nc(-c2ccc(F)cc2)cs1 [Compound 196, (R)-5-((4-(2-ethyl-3-((4-(4-fluorophenyl)thiazol-2-yl)(methyl)amino)imidazo[1,2-a]pyridin-6-yl)piperidin-1-yl)methyl)oxazolidin-2-one]
> 1000 | CCc1nc2ccc(N3CCNCC3)cn2c1N(C)c1nc(-c2ccc(F)cc2C#N)c(C)s1 [Compound 161, 2-(2-((2-ethyl-6-(piperazin-1-yl)imidazo[1,2-a]pyridin-3-yl)(methyl)amino)-5-methylthiazol-4-yl)-5-fluorobenzonitrile]
> 1000 | [2H]C([2H])([2H])N(c1nc(-c2ccc(F)cc2)cs1)c1c(CC)nc2ccc(C3CCN(S(C)(=O)=O)CC3)cn12 [Compound 102, 4-(4-fluorophenyl)-N-(2-ethyl-6-(1-(methylsulfonyl)piperidin-4-yl)imidazo [1,2-a]pyridin-3-yl)-N-(d3-methyl)thiazol-2-amine]
> 1000 | CCc1nc2ccc(C3CCN(S(C)(=O)=O)CC3)cn2c1N(C)c1nc(-c2ccc(F)cc2)c(C(=O)OC)s1 [Compound 104, methyl 2-((2-ethyl-6-(1-(methylsulfonyl)piperidin-4-yl)imidazo [1,2-a]pyridin-3-yl)(methyl)amino)-4-(4-fluorophenyl)thiazole-5-carboxylate]
500 to 1000 | CCc1nc2ccc(N3CC(N)C3)cn2c1N(C)c1nc(-c2ccc(F)cc2)cs1 [Compound 177, [6-(3-Amino-azetidin-1-yl)-2-ethyl-imidazo[1,2-a]pyridin-3-yl]-[4-(4-fluoro-phenyl)-thiazol-2-yl]-methyl-amine]
> 1000 | CCc1nc2ccc(C3=CCN(CC(=O)N(C)C)CC3)cn2c1N(C)c1nc(-c2ccc(F)cc2)ns1 [Compound 190, 2-(4-(2-ethyl-3-((3-(4-fluorophenyl)-1,2,4-thiadiazol-5-yl)(methyl)amino)imidazo[1,2-a]pyridin-6-yl)-5,6-dihydropyridin-1(2H)-yl)-N,N-dimethylacetamide]
500 to 1000 | CCc1nc2ccc(C3CCN(CC(=O)N(C)CC#N)CC3)cn2c1N(C)c1nc(-c2ccc(F)cc2)cs1 [Compound 121, N-(cyanomethyl)-2-(4-(2-ethyl-3-((4-(4-fluorophenyl)thiazol-2-yl)(methyl)amino)imidazo[1,2-a]pyridin-6-yl)piperidin-1-yl)-N-methylacetamide]
100 to 500 | CCc1nc2ccc(N3CCN(CC(=O)N4CC(F)(F)C4)CC3)cn2c1N(C)c1nc(-c2ccc(F)cc2C#N)cs1 [Compound 165, 2-(2-((6-(4-(2-(3,3-difluoroazetidin-1-yl)-2-oxoethyl)piperazin-1-yl)-2-ethylimidazo[1,2-a]pyridin-3-yl)(methyl)amino)thiazol-4-yl)-5-fluorobenzonitrile]
500 to 1000 | CCc1nc2ccc(C3CCN(CC4CNC(=O)O4)CC3)cn2c1N(C)c1nc(-c2ccc(F)cc2)cs1 (stereo not drawn) [Compound 122, 5-((4-(2-ethyl-3-((4-(4-fluorophenyl)thiazol-2-yl)(methyl)amino)imidazo[1,2-a]pyridin-6-yl)piperidin-1-yl)methyl)oxazolidin-2-one]
100 to 500 | CCc1nc2ccc(C3CCN(C(=O)CN4CC(F)(F)C4)CC3)cn2c1N(C)c1nc(-c2ccc(F)cc2)cs1 [Compound 131]
> 1000 | CCc1nc2ccc(C3CCN(S(C)(=O)=O)CC3)cn2c1N(C)c1nc(-c2ccc(OC(F)(F)F)cc2)c(CO)s1 [Compound 148, (2-((2-ethyl-6-(1-(methylsulfonyl)piperidin-4-yl)imidazo [1,2-a]pyridin-3-yl)(methyl)amino)-4-(4-(trifluoromethoxy)phenyl)thiazol-5-yl) methanol]
0.01 to 100 | CCc1nc2ccc(N3CCN(CC(=O)N4CCC4)CC3)cn2c1N(C)c1nc(-c2ccc(F)cc2)cs1 [Compound 30, 1-(azetidin-1-yl)-2-(4-(2-ethyl-3-((4-(4-fluorophenyl)thiazol-2-yl)(methyl)amino)imidazo[1,2-a]pyridin-6 yl)piperazin-1-yl)ethanone]
